{"source": "patent US20250034127A1", "about": "“AUTOPHAGY INDUCING COMPOUNDS AND USES THEREOF, IN PARTICULAR FOR DISEASES OF THE CNS” (Samsara Therapeutics Inc., priority 2021, published 2025)", "key": {"[1]": {"tested_on": "Human osteosarcoma U2OS cells", "assay": "Assay to measure lysosome and autolysosome (acidic vesicle) formation in U2OS cells", "assay_type": "cell-based", "conditions": "Homo sapiens, concentration of 0.8 μM, read-out: Activity (percentage increase in acidic vesicle formation over the DMSO-treated control)", "protocol": "Lysosomes play a fundamental role in the autophagic pathway by fusing with autophagosomes and creating ‘autolysosomes’ in order to digest their contents. Stimulation of lysosome and autolysosome formation by a compound is indicative of a stimulation of autophagy. The ability of compounds to stimulate lysosome and autolysosome formation, and thus autophagy, in live cells was assessed via fluorescent microscopy using various fluorescent stains for labelling and tracking acidic organelles (including lysosomes and autolysosomes) such as: LysoView™ 650 (70059 and 70059-T, Biotium), Lyso View™633 (70058 and 70058-T, Biotium) and LysoTracker™ Deep Red (L12492, ThermoFisher Scientific). The cellular phenotype was quantitatively assessed for the induction of acidic vesicle formation and compared to a non-treated control, thus providing a measure of the ability of the compound under investigation to stimulate autophagy.\nRepresentative procedure using LysoView™ 633 dye or LysoTracker™ Deep Red dye: Human osteosarcoma U2OS cells (40,000 cells/well) were seeded in a 24 well glass bottom plate (Sensoplate, Greiner Bio-One) and were incubated overnight in a humidified atmosphere at 37° C. and 5% CO2. Cells were grown in DMEM (Gibco) supplemented with 10% Fetal Bovine Serum (FBS) and 100 units/ml penicillin and 100 μg/ml streptomycin (Invitrogen). After the attachment period, cells were treated with different compounds of interest (at various concentrations in DMSO) or DMSO (non-treated control) in cell culture medium and were incubated for 24 hours. Compound-containing medium was removed and cells were incubated with pre-warmed cell culture medium containing 1× Lyso View™ 633 (70058 and 70058-T, Biotium) or 50 nM LysoTracker™ Deep Red (L12492, ThermoFisher Scientific) for 45 minutes at 37° C. Finally, cell nuclei were stained for 10 minutes using Hoechst 33342 (1 μg/mL) and then the medium was replaced with fresh medium. The 24 well plate was then fitted into a heated stage on the microscope and cells maintained at 37° C. Images were captured using appropriate filter set for Cy5 and DAPI detection with the EVOS M7000 Microscope (ThermoFisher Scientific). The cellular phenotype was visually assessed for the induction of acidic vesicle formation relative to the non-treated control; multiple images were acquired and analysed using ImageJ or Cell Profiler."}, "[2]": {"tested_on": "primary culture of dopaminergic Tyrosine hydroxylase (TH)-positive neurons", "assay": "Cellular model of Parkinson's disease (MPTP/MPP+ injury)", "assay_type": "cell-based, rat", "source_text": "This model (run by Neuro-Sys SAS, France) is based on a primary culture of dopaminergic Tyrosine hydroxylase (TH)-positive neurons injured with the dopaminergic neurons-specific toxin (DA-toxin) 1-methyl-4-phenyl-1,2,3,6 tetrahydropyridine (MPTP, a prodrug of MPP^+) (Dauer and Przedborski, 2003). Any substances reducing DA-toxin neurotoxicity may be useful as a new therapeutic agent for the treatment or prevention of PD.\nPrimary culture of mesencephalic neurons: Rat dopaminergic neurons were cultured as described by Visanji et al., 2008 and Callizot et al., 2019. Briefly, pregnant female rat (Wistar) of 15 days of gestation were killed using a deep anesthesia with CO2 chamber and a cervical dislocation. The midbrains obtained from 15-day-old rat embryos (Janvier, France) were dissected under a microscope. The embryonic midbrains will be removed and placed in ice-cold medium of Leibovitz (L15) containing 2% of Penicillin-Streptomycin (PS) and 1% of bovine serum albumin (BSA). The ventral portion of the mesencephalic flexure, a region of the developing brain rich in dopaminergic neurons, was used for the cell preparations.\nThe midbrains were dissociated by trypsinisation for 20 min at 37° C. (solution at a final concentration of 0.05% trypsin and 0.02% EDTA). The reaction was stopped by the addition of Dulbecco's modified Eagle's medium (DMEM) containing DNAase I grade II (0.5 mg/mL) and 10% of foetal calf serum (FCS). Cells were then mechanically dissociated by 3 passages through a 10 ml pipette. Cells were then centrifuged at 180×g for 10 min at +4° C. on a layer of BSA (3.5%) in L15 medium. The supernatant was discarded, and the cell pellets re-suspended in a defined culture medium consisting of Neurobasal supplemented with B27 (2%), L-glutamine (2 mM) and 2% of PS solution and 10 ng/mL of Brain-derived neurotrophic factor (BDNF) and 1 ng/ml of Glial-Derived Neurotrophic Factor (GDNF). Viable cells were counted in a Neubauer cytometer using the trypan blue exclusion test. The cells were seeded at a density of 40,000 cells/well in 96 well-plates (pre-coated with poly-L-lysine) and maintained in a humidified incubator at 37° C. in 5% CO2/95% air atmosphere. Half of the medium was changed every 2 days with fresh medium. The wells of first and last lines and columns […] (to avoid any edge effect) and were be filled with sterile water.\n• i) Pre-incubation. On day 6 of culture, the test compounds were dissolved in PBS or DMSO and incubated for 1 hour before the MPTP exposure. • ii) Injury. One hour after the application of test compound, MPTP was added to a final concentration of 4 μM, diluted in control medium still in presence of compounds/inhibitors for 48 h. Test compounds were tested on one culture in 96-well plate (n=6 culture wells per condition).\nImmunostaining: TH and α-Synuclein. 48 Hours after intoxication, the cell culture supernatant was removed, and the cells were fixed by a solution of 4% paraformaldehyde in PBS, pH=7.3 for 20 min at room temperature. The cells were washed twice in PBS, and then permeabilized. Non-specific sites were blocked with a solution of PBS containing 0.1% of saponin and 1% FCS for 15 min at room temperature. The cultures were incubated with: (a) monoclonal anti-Tyrosine Hydroxylase (TH) antibody produced in mouse at dilution of 1/10000 in PBS containing 1% FCS, 0.1% saponin, for 2 hours at room temperature, and (b) polyclonal anti-alpha synuclein (α-synuclein) antibody produced in rabbit at dilution of 1/200 in PBS containing 1% FCS, 0.1% saponin, for 2 h at room temperature.\nAutomatic computer analysis. For each condition, 20 pictures (representing the whole well area) were automatically taken using ImageXpress® (Molecular Devices) at 10× magnification (20 pictures, for TH and α-synuclein into TH neurons) using the same acquisition parameters. From images, analyses was directly and automatically performed by MetaXpress® (Molecular Devices). […]"}, "[3]": {"conditions": "500 nM, compared to MPP+ injury alone"}}}
{"smiles": "CCN1CCC(N(C)C(=O)c2csc(-c3cnn(-c4ccccc4)c3)n2)CC1", "note": "[Compound 196, N-(1-ethylpiperidin-4-yl)-N-methyl-2-(1-phenyl-1H-pyrazol-4-yl)-1,3-thiazole-4-carboxamide]", "values": [{"measurement": "activation at 0.8 µM", "setting": "[1]", "value": "30 to 50", "unit": "%"}, {"measurement": "effects in the in vitro model of PD based on MPP+ injury", "setting": "[2]", "value": "positive effects"}, {"measurement": "decrease in α-syn area per dopaminergic TH positive neuron", "setting": "[2]; 100 nM, compared to MPP+ injury alone", "value": 26, "unit": "%"}, {"measurement": "decrease in α-syn area per dopaminergic TH positive neuron", "setting": "[2]; [3]", "value": 35, "unit": "%"}, {"measurement": "increase in the number of dopaminergic TH positive neurons", "setting": "[2]; [3]", "value": 26, "unit": "%"}, {"measurement": "decrease in α-syn area per dopaminergic TH positive neuron", "setting": "[2]; 1 μM, compared to MPP+ injury alone", "value": 19, "unit": "%"}]}
